Reference: article PMC11181338 (Journal of Medicinal Chemistry, 2024)

Legend:
hERG channels = settings: cited from earlier work; for % of hERG current blocked: 10 μM
human KCNT1 [1] = target: T1, human KCNT1 (Homo sapiens, UniProt Q5JUK3); assay: FluxOR thallium; assay type: cell-based
T1 sequence (Q5JUK3 1-1256 isoform Q5JUK3-2): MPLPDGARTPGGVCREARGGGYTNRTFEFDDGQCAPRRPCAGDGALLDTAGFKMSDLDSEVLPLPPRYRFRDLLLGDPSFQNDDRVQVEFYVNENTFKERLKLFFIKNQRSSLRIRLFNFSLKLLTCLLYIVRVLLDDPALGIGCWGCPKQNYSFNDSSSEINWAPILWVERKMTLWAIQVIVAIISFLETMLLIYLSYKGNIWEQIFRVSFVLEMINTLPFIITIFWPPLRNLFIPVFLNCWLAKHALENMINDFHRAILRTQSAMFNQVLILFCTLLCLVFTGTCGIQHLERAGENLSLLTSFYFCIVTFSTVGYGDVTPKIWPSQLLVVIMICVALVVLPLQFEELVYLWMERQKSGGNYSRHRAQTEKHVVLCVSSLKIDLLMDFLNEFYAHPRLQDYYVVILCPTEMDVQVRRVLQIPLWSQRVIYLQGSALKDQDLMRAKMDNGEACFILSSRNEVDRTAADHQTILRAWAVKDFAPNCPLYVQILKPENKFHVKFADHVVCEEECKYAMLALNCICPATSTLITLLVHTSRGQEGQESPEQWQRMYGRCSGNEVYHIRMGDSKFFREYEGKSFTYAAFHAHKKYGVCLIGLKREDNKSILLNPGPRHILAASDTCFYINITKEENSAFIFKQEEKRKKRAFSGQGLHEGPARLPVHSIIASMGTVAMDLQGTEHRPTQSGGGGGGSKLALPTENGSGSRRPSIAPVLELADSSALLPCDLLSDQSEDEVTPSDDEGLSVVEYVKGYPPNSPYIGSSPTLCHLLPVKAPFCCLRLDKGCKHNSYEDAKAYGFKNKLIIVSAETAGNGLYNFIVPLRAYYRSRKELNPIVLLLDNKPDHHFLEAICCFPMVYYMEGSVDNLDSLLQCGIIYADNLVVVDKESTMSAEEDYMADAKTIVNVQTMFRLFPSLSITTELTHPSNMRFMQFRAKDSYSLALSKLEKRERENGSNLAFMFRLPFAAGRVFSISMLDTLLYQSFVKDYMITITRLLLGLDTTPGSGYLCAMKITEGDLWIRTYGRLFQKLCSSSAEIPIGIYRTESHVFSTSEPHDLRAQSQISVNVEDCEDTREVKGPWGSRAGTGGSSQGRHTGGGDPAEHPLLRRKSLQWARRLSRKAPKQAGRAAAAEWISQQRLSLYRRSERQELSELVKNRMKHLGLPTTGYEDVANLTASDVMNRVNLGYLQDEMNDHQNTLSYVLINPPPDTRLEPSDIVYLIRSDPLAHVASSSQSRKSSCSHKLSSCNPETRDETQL

human KCNT1 [2] = target: T1, human KCNT1; assay: Whole-cell patch-clamp, CHO cells transiently transfected with hKCNT1; assay type: cell-based; settings: 10 μM
hERG = hERG (Homo sapiens, UniProt Q12809); assay: Whole-cell patch-clamp, CHO cells transiently transfected with hERG; settings: for inhibition at 10 µM: human, pH 7.4, % of hERG inhibition, tail currents at −100 mV; for hERG-blocking activity: 10 μM
Plasma protein binding = assay type: in vitro ADME; settings: 10 μM, 4 h, 37 °C
[3] = In vitro drug metabolism using human liver microsomes; settings: HLM
Human plasma stability = assay type: in vitro ADME
human KCNT2 = target: T2, human KCNT2 (Homo sapiens, UniProt Q6UVM3); assay: Whole-cell patch-clamp, HEK cells expressing KCNT2; assay type: cell-based; settings: KCNT2 currents
T2 sequence (Q6UVM3 1-1135): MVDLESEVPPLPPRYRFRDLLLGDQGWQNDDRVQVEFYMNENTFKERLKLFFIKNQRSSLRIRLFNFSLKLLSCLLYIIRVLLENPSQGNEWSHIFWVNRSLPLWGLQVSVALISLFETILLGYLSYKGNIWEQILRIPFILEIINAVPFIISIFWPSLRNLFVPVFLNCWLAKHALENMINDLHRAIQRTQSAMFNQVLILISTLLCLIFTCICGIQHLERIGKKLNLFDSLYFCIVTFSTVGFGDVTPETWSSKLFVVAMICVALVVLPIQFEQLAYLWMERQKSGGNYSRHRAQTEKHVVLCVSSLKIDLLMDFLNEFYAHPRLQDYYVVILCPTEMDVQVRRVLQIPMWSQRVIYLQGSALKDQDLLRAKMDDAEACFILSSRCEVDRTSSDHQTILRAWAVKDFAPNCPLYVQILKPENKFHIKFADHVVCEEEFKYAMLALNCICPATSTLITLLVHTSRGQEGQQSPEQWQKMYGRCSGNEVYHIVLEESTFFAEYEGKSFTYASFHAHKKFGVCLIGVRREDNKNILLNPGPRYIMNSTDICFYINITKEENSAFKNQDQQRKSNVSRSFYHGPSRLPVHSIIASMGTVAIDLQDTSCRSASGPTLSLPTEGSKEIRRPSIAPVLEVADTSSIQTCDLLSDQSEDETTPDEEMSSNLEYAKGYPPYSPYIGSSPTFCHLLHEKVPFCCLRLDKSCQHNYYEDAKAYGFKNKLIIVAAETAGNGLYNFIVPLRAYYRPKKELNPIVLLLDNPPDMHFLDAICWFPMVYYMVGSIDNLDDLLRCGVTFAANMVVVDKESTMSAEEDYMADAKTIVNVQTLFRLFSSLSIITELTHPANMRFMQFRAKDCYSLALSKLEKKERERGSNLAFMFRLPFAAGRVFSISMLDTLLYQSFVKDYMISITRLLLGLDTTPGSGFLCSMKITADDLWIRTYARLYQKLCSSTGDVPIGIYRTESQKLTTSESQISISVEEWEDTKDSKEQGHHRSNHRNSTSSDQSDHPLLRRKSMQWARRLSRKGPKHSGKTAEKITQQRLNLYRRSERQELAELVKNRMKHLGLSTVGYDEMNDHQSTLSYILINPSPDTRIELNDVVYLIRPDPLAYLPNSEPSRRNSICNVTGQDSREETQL

untransfected CHO cells = assay: FluxOR Tl+ fluorescence assay in untransfected CHO cells; assay type: cell-based, Chinese Hamster; settings: 10 μM
KCNT1 = settings: read-out: KCNT1 IC50; cited from earlier work
KCNT2 = settings: up to 10 μM, Tl+ flux assay; cited from earlier work
[4] = tested on: KCNT1 versus KCNT2 channels; settings: cited from earlier work

Chain of hERG (Q12809 whole entry): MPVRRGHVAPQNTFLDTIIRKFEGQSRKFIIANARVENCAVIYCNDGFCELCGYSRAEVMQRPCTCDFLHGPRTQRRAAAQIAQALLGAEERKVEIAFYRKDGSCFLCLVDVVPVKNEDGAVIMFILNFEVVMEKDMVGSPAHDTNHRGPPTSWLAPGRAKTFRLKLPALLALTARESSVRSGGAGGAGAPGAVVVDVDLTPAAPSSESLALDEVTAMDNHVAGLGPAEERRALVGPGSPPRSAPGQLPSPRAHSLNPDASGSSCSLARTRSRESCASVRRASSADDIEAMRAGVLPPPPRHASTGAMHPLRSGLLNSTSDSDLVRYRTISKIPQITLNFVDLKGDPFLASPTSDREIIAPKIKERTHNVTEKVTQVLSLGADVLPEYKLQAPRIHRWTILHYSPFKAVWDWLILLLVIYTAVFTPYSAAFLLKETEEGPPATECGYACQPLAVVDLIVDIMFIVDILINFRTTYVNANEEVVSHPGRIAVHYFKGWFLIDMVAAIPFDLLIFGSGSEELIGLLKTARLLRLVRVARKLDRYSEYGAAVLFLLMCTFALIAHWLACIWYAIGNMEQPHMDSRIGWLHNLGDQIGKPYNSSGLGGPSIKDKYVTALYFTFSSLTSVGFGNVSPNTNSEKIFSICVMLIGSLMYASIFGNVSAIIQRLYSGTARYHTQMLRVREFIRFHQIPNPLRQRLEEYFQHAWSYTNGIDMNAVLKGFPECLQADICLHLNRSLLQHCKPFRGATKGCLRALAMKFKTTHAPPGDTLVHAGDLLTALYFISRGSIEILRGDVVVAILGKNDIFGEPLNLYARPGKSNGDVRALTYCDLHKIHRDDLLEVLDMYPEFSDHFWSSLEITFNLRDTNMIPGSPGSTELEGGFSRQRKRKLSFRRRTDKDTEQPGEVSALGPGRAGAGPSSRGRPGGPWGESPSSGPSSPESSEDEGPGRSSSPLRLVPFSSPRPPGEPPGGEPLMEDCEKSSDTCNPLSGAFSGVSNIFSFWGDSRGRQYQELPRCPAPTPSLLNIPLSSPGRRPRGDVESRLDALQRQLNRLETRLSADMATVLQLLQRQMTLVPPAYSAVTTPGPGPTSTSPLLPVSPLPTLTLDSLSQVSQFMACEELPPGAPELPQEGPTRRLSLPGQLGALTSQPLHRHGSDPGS

O=C(Nc1cccc(C(F)(F)F)c1)c1ccc2nc(N3C(=O)c4ccccc4C3=O)sc2c1 [BC12]
% of hERG current blocked (hERG channels): 15–20%

Cc1cc(O)ccc1N/C=C/C(=O)c1ccccc1 [BC13]
% of hERG current blocked (hERG channels): 15–20%

CC(C)(C)CNC(=O)Nc1ccc2c(c1)CCN2Cc1ccc(F)cc1 [CPK4, 1-[1-(4-Fluorobenzyl)indolin-5-yl]-3-neopentylurea]
effect on the fluorescent signal (human KCNT1 [1]; 10 μM, followed by LOX 10 μM): markedly reduced the fluorescent signal | blocking time constant (τon) (human KCNT1 [2]): 49.0 ± 9.6 s | inhibition at 10 µM (hERG): 30 to 40%

Oc1ccc2ccccc2c1CNCCc1c[nH]c2ccccc12 [CPK13, 1-{[(2-(1H-Indol-3-yl)ethyl]amino)methyl}naphthalen-2-ol]
blocking time constant (τon) (human KCNT1 [2]): 17.7 ± 2.3 s | inhibition at 10 µM (hERG): 30 to 40%

CCOC(=O)[C@@H]1CS[C@@]2(C(=O)Nc3ccc(Br)cc32)N1C(=O)c1ccc(Cl)cc1 [CPK16, (2′S,4′R)-Ethyl 5-bromo-3′-(4-chlorobenzoyl)-2-oxospiro[indoline-3,2′-thiazolidine]-4′-carboxylate]
hERG-blocking activity (hERG): devoid of hERG-blocking activity

O=C(NCc1ccccc1)[C@H](Cc1c[nH]c2ccccc12)NCc1ccc(Oc2ccccc2)cc1 [CPK18, (S)-N-Benzyl-3-(1H-indol-3-yl)-2-[(4-phenoxybenzyl)amino]propanamide]
binding to plasma proteins (Plasma protein binding): 99% | clearance category [3]: high | CLint in vivo ([3]; NADPH + UDPGA, scaled with human PBSF): < 80 mL min^–1 kg^–1 | hERG-blocking activity (hERG): devoid of hERG-blocking activity | recovery at 120 min (Human plasma stability): ≥ 80%

O=S(=O)(Nc1ccc2c(c1)CCN2Cc1ccc(C(F)(F)F)cc1C(F)(F)F)C1CCCCC1 [CPK20, N-{1-[2,4-Bis(trifluoromethyl)benzyl]indolin-5-yl}cyclohexanesulfonamide]
binding to plasma proteins (Plasma protein binding): 99% | Hill slope (k values) (human KCNT2): −0.57 ± 0.09 mV/efold | clearance category [3]: low clearance | CLint in vitro ([3]; NADPH + UDPGA): < 1 mL min^–1 kg^–1 | hERG-blocking activity (hERG): devoid of hERG-blocking activity | recovery at 120 min (Human plasma stability): ≥ 80%

CN1CCN(C2=Nc3ccccc3Oc3ccc(Cl)cc32)CC1 [LOX, loxapine]
EC50 (human KCNT1 [1]): 4 ± 1.7 µM | slope of the Tl+ fluorescence curve (human KCNT1 [1]; 10 μM, 15 min preincubation, KCNT1 stably transfected CHO cells): 0.041 ± 0.006 | slope of the Tl+ fluorescence curve (untransfected CHO cells): 0.0007 ± 0.0006

C=C[C@H]1C[N@@]2CC[C@H]1C[C@@H]2[C@@H](O)c1ccnc2ccc(OC)cc12 [QND, quinidine]
IC50 (hERG channels; read-out: hERG IC50, heterologously expressed hERG channels): […] | IC50 (KCNT1): 80 to 100 µM

COc1ccc(Cl)cc1NC(=O)CN1CCN(S(=O)(=O)N2CCC(C)CC2)CC1 [VU0606170]
KCNT2 blocking effect (KCNT2): no KCNT2 blocking effect

CCCCCCC[N+](CC)(CC)CCCCc1ccc(Cl)cc1 [clofilium]
inhibitory potency KCNT1 versus KCNT2 [4]: stronger inhibitory potency for KCNT1 versus KCNT2 channels
